Data: ChEMBL document CHEMBL1821550 (Bioorg Med Chem Lett, 2011)

Assay: physchem
Conditions: octanol/water
With `Cc1cccc2c(=O)n(C)c(-c3ccc(OC4CCN(C5CCC5)CC4)cc3)nc12` the logD was 2.7.
`Fc1ccc(-c2cnc3nc(N4CCC(N5CCCCC5)CC4)sc3c2)cn1` showed a logD of 1.5.
`COc1cccc2c(=O)n(-c3ccc(OCCCN4CCCC4)cc3)c(C)nc12` showed a logD of 1.7.
Work on `Cc1nc(-c2cnccn2)sc1-c1ccc2cc(CCN3CCC[C@H]3C)ccc2n1` yielded a logD of 2.7.
In the case of `c1ncc(-c2cc3sc(N4CCC(N5CCCCC5)CC4)nc3cn2)cn1`, the logD is reported as 0.5.
`Cc1nc2cccc(C(F)(F)F)c2c(=O)n1-c1ccc(OCCCN2CCCC2)cc1` [MK-0249] gave a logD of 2.6.
Work on `Cn1c(-c2ccc(OC3CCN(C4CCC4)CC3)cc2)nc2c(Cl)cccc2c1=O` yielded a logD of 2.8.
For `C[C@@H]1CCCN1CCc1ccc2nc(-c3ccn4ncnc4n3)ccc2c1`, the logD was 2.5.
`Cc1nc2c(C(F)(F)F)cccc2c(=O)n1-c1ccc(OCCCN2CCCC2)cc1` gave a logD of 2.6.
`C=C(N(C)Cc1ccc(-c2ccccc2)cc1)N1CCN(C(C)C)CC1` showed a logD of 1.8.
`Cc1nn(C)cc1-c1ccc2cc(CCN3CCC[C@H]3C)ccc2n1` showed a logD of 2.6.
Compound `C[C@@H]1Sc2ccccc2O[C@@H]1c1ccc(OCCCN2CCCC2)cc1` has a logD of 3.3.
`Cn1c(-c2ccc(OCCCN3CCCC3)cc2)nc2ccccc2c1=O` gave a logD of 1.8.
`Nc1cnc(-c2cc3sc(N4CCC(N5CCCCC5)CC4)nc3cn2)cn1` gave a logD of 0.2.
Compound `COc1cc(-c2cc3sc(N4CCC(N5CCCCC5)CC4)nc3cn2)ccn1` has a logD of 1.6.
With `CN(C)C1CCC(c2ccc(OCCCN3CCCCC3)cc2)CC1` (centres undefined) the logD was 1.4.
For `Cc1nc2cc(C(F)(F)F)ccc2c(=O)n1-c1ccc(OCCCN2CCCC2)cc1`, the logD was 2.6.
In the case of `C[C@@H]1CCCN1CCc1ccc2ncccc2c1`, the logD is reported as 1.7.
Work on `C[C@@H]1CCCN1CCc1ccc(-c2ccc(S(=O)(=O)Nc3ccccc3)cc2)cc1` yielded a logD of 3.5.
In the case of `COC(=O)N1CC(Oc2cccc(F)c2)CC1C(=O)N1CCCN(C2CCC2)CC1` (centres undefined), the logD is reported as 1.8.
In the case of `O=C(N1CCN(C2CC2)CC1)N1Cc2ccccc2C1`, the logD is reported as 0.1.
`Cc1cc(C(F)(F)F)cc(-n2ncc(-c3ccc4cc(CCN5CCC[C@H]5C)ccc4n3)c2C)n1` gave a logD of 4.6.
For `Cc1cc(-c2nc(-c3ccc4cc(CCN5CCC[C@H]5C)ccc4n3)cs2)no1`, the logD was 3.5.
Compound `c1cc(C2=NCCO2)ccc1OCCCN1CCCCC1` has a logD of 1.3.
In the case of `O=C(C1CC(Oc2ccc(Cl)cc2)CN1)N1CCCN(C2CCC2)CC1` (centres undefined), the logD is reported as 0.6.
For `O=c1c2ccccc2ncn1-c1ccc(OCCCN2CCCC2)cc1`, the logD was 1.6.
Work on `COc1ccc2nc(-c3ccc(OC4CCN(C5CCC5)CC4)cc3)n(C)c(=O)c2c1` yielded a logD of 2.2.
Compound `Cn1c(-c2ccc(OC3CCN(C4CCC4)CC3)cc2)nc2ccccc2c1=O` has a logD of 2.2.
With `COCCNS(=O)(=O)c1ccc(-c2ccc(CCN3CCC[C@H]3C)cc2)cc1` the logD was 1.8.
Work on `Oc1ccc(-c2cc3sc(N4CCC(N5CCCCC5)CC4)nc3cn2)cn1` yielded a logD of 1.4.
In the case of `c1cc(C2CCCCC2)ccc1OCCCN1CCCCC1`, the logD is reported as 3.6.
Work on `COCC1CCCN1S(=O)(=O)c1ccc(-c2ccc(CCN3CCC[C@H]3C)cc2)cc1` (some centres undefined) yielded a logD of 2.5.
In the case of `COc1ccc2c(c1)S(=O)(=O)C(C)C(c1ccc(OCCCN3CCCC3)cc1)O2` (centres undefined), the logD is reported as 2.2.
Compound `O=c1c2ccccc2nc(-c2ccc(OCCCN3CCCCC3)cc2)n1Cc1ccccc1` has a logD of 3.8.
Compound `CC[C@@H]1Sc2ccccc2O[C@@H]1c1ccc(OCCCN2CCCC2)cc1` has a logD of 3.8.
`O=c1ccc(-c2cnc3nc(N4CCC(N5CCCCC5)CC4)sc3c2)c[nH]1` gave a logD of 1.2.
In the case of `C[C@@H]1CCCN1CCc1ccc2nc(-c3cnc(-c4ccccc4)s3)ccc2c1`, the logD is reported as 4.3.
With `O=c1c2ccccc2nc(-c2ccc(OCCCN3CCCCC3)cc2)n1-c1ccccc1` the logD was 3.8.
`C[C@@H]1CCCN1CCc1ccc(-c2ccc(S(=O)(=O)N3CCCCC3)cc2)cc1` gave a logD of 3.1.
For `C[C@@H]1CCCN1CCc1ccc2nc(-c3ccc4nccnc4c3)ccc2c1`, the logD was 3.1.
Compound `O=C(C1CC(Oc2ccc(F)cc2)CN1)N1CCCN(C2CCC2)CC1` (centres undefined) has a logD of 0.2.
With `Cc1ccc(-c2ccc3cc(CCN4CCC[C@H]4C)ccc3n2)c(C)n1` the logD was 3.1.
For `COC1CCN(S(=O)(=O)c2ccc(-c3ccc(CCN4CCC[C@H]4C)cc3)cc2)CC1`, the logD was 2.
For `C[C@@H]1CCCN1CCc1ccc2nc(C3=NCCS3)ccc2c1`, the logD was 2.7.
In the case of `COc1ccc(-c2cnc3nc(N4CCC(N5CCCCC5)CC4)sc3c2)cn1`, the logD is reported as 1.4.
Compound `c1ccc(-c2ccc(OCCCN3CCCCC3)cc2)cc1` has a logD of 2.9.
With `CC(=O)Nc1ccc(-c2cnc3nc(N4CCC(N5CCCCC5)CC4)sc3c2)cn1` the logD was 0.6.
Work on `c1ccc([C@@H]2Sc3ccccc3O[C@@H]2c2ccc(OCCCN3CCCC3)cc2)cc1` yielded a logD of 4.5.
`C[C@@H]1CCCN1CCc1ccc2nc(-c3cn4c(n3)SCC4)ccc2c1` gave a logD of 3.1.
`N#Cc1ccc(OC2CNC(C(=O)N3CCCN(C4CCCC4)CC3)C2)cc1` (centres undefined) showed a logD of 0.6.
`Cc1ccc(-c2cc3sc(N4CCC(N5CCCCC5)CC4)nc3cn2)cn1` showed a logD of 1.4.
For `COc1ccc2c(c1)OC(c1ccc(OCCCN3CCCC3)cc1)C(C)S2(=O)=O` (centres undefined), the logD was 2.2.
`O=C(C1CC(Oc2ccc(F)cc2)CN1)N1CCCN(C2CCCC2)CC1` (centres undefined) showed a logD of 0.9.
With `C[C@@H]1CCCN1CCc1ccc(-c2ccc(S(=O)(=O)NCc3ccccc3)cc2)cc1` the logD was 3.6.
In the case of `COc1cccc2c1OC(c1ccc(OCCCN3CCCCC3)cc1)C(C)S2(=O)=O` (centres undefined), the logD is reported as 2.7.
`Cc1cccc2nc(C)n(-c3ccc(OCCCN4CCCC4)cc3)c(=O)c12` gave a logD of 2.2.
In the case of `Cc1ccc(-c2ccc3cc(CCN4CCC[C@H]4C)ccc3n2)cn1`, the logD is reported as 2.8.
For `C[C@@H]1CCCN1CCc1cc2cc(-c3ccc(C#N)cc3)ccc2o1`, the logD was 3.2.
`O=C(/C=C/c1ccc(C(F)(F)F)cc1)N1CCC[C@H]1CN1CCCC1` showed a logD of 2.4.
`C[C@@H]1CCCN1CCc1ccc2nc(-c3ccccn3)ccc2c1` showed a logD of 2.9.
With `CC1=C(c2ccc(OCCCN3CCCC3)cc2)Oc2ccccc2S1(=O)=O` the logD was 1.9.
`Cc1nc2ccccn2c1-c1ccc2cc(CCN3CCC[C@H]3C)ccc2n1` gave a logD of 3.2.
Compound `Cc1nc(C)c(-c2ccc3cc(CCN4CCCC4C)ccc3n2)cc1C(N)=O` (centres undefined) has a logD of 2.1.
`C[C@@H]1CCCN1CCc1ccc2nc(-c3csc(-c4ccccc4)n3)ccc2c1` gave a logD of 4.4.
For `CCCc1nc2ccccc2c(=O)n1-c1ccc(OCCCN2CCCC2)cc1`, the logD was 2.8.
Compound `Cn1nccc1-c1ccc(OCCCN2CCCCC2)cc1` has a logD of 1.8.
For `N#Cc1cncc(-c2cnc3nc(N4CCC(N5CCCCC5)CC4)sc3c2)c1`, the logD was 0.8.
With `O=c1c2ccccc2nc(-c2ccccc2)n1-c1ccc(OCCCN2CCCC2)cc1` the logD was 3.4.
Compound `CC(=O)Nc1ccc(-c2cc3sc(N4CCC(N5CCCCC5)CC4)nc3cn2)cn1` has a logD of 0.8.
Compound `C[C@@H]1CCCN1CCc1ccc2nc(C(C)(C)C)ccc2c1` has a logD of 3.6.
With `C[C@@H]1CCCN1CCc1ccc2nc(-c3nc4ccccc4s3)ccc2c1` the logD was 4.1.
For `Cc1nc(C)c(-c2ccc3cc(CCN4CCC[C@H]4C)ccc3n2)o1`, the logD was 2.4.
In the case of `Cc1nc2cc(F)ccc2c(=O)n1-c1ccc(OCCCN2CCCC2)cc1`, the logD is reported as 1.9.
For `CC1CCN(c2ccc3cc(CCN4CCC[C@H]4C)ccc3n2)CC1`, the logD was 2.9.
Compound `O=C(C1CC(Oc2cccc(Cl)c2)CN1)N1CCCN(C2CCC2)CC1` (centres undefined) has a logD of 0.6.
`O=C(C1CC(Oc2cccc(F)c2)CN1)N1CCCN(C2CCC2)CC1` (centres undefined) showed a logD of 0.2.
`Cc1nc(-c2cccnc2)sc1-c1ccc2cc(CCN3CCC[C@H]3C)ccc2n1` gave a logD of 3.5.
`Cc1nc2ncccc2cc1-c1ccc2cc(CCN3CCC[C@H]3C)ccc2n1` gave a logD of 3.1.
Compound `CC1CCCN1CCc1ccc2nc(-c3ccsc3)ccc2c1` (centres undefined) has a logD of 3.3.
